# Experimental data published in patent US20100130459A1, “NEUROPROTECTIVE 7-BETA-HYDROXYSTEROIDS” (Hunter-Fleming Limited, priority 2000, published 2010).
# Key:
# [1] = system: Organotypic hippocampal slice cultures (CA1 cell layer); assay: Hypoxic neuronal damage in organotypic hippocampal slice cultures (PI fluorescence in CA1); assay type: cell-based, Wistar rat
# Protocol: Organotypic hippocampal slice cultures were prepared using the basic method of Pringle et al (1996, 1997) modified as follows:
# Wistar rat pups (8-11 days old) were decapitated and the hippocampus rapidly dissected into ice-cold Gey's balanced salt solution supplemented with 4.5 mg/ml glucose. Slices were separated and plated onto Millicell CM culture inserts (4 per well) and maintained at 37′C./5% CO2 for 14 days. Maintenance medium consisted of 25% heat-inactivated horse serum, 25% Hank's balanced salt solution (HBSS) and 50% minimum essential medium with added Earle's salts (MEM) supplemented with 1 mM glutamine and 4.5 mg/ml glucose. Medium was changed every 3-4 days.
# Experimental hypoxia was performed as described previously (Pringle e al., 1996; 1997). Briefly, cultures were transferred to serum free medium (SFM—75% MEM, 25% HBSS supplemented with 1 mM glutamine and 4.5 mg/ml glucose) containing 5 μg/ml of the fluorescent exclusion dye propidium iodide (PI). Cultures were allowed to equilibrate in SFM for 60 minutes prior to imaging. PI fluorescence was detected using a Leica inverted microscope fitted with a rhodamine filter set. Any cultures in which PI fluorescence was detected at this stage were excluded from further study. Hypoxia was induced by transferring cultures to SEM (+PI) which had been saturated with 95% N2/5% CO2. Culture plates (without lids) were then sealed into an airtight chamber in which the atmosphere was saturated with 95% N2/5% CO2 by continuously blowing through gas at 10 L/min for ten minutes before being sealed and placed in the incubator for 170 mins (total time of hypoxia was therefore 180 mins). At the end of the hypoxic period cultures were returned to normoxic SFM containing PI and placed back in the incubator for 24 hours.
# Neuronal damage was assessed as described previously (Pringle et al., 1996; 1997) using either NIH Image 1.60 running on an Apple IIsi computer or OpenLab 2.1 (Improvision) running on a Macintosh G4/400. Images were captured using a monochrome camera and saved onto optical disk for offline analysis. Light transmission images were captured prior to the addition of drugs, and PI fluorescence images recorded at the end of the 24-hour post-hypoxia recovery period. The area of the CA1 cell layer was determined from the transmission image. The area of PI fluorescence in CA1 was measured using the density slice function within NIH Image or OpenLab, and neuronal damage expressed as the percentage of the CA1 in which PI fluorescence was detected above background.
# Steroid compounds were prepared by making an initial 1 mg/ml solution in ethanol and further diluting down in SFM. Compounds were added to the cultures for 45 minutes prior to hypoxia, during the hypoxic episode and during the post-hypoxic recovery period. Control experiments consisted of cultures treated with vehicle alone.
# [2] = system: hippocampal CA1 pyramidal cells; assay: Global cerebral ischemia in rats (4 vessel occlusion), surviving CA1 neurons by Nissl staining; assay type: in vivo, male Wistar rats
# Protocol: Cerebral ischemia was induced by four-vessel-occlusion (4VO) in male Wistar rats (250-280 g). Both vertebral arteries were occluded by electrocauterization in pentobarbital anesthesia (60 mg/kg i.p.). The animals were allowed to recover for 24 hours with free access to water but not food. The next day the carotid arteries were exposed under 2% halothane in 30% oxygen/70% nitrous oxide anesthesia and were occluded for 10 minutes using microvascular claps. Subsequently, both clamps were removed and both arteries were inspected for immediate reperfusion. During the operation and the following 3 hours normothermia of the animals (37.5±0.5° C.) was maintained by using a thermostatically controlled heating blanket connected to a rectal thermometer. For control, in sham-operated animals both vertebral arteries were cauterized in pentobarbital anesthesia and both common carotid arteries were exposed but not clamped under 2% halothane in 30% oxygen/70% nitrous oxide anesthesia the following day. The wound was treated with lidocaine gel and then sutured. The animals were kept under a heating lamp at 30° C. environmental temperature until they regained consciousness.
# Seven groups of animals were investigated: • 1. (n=8) steroid compound, 7β-OH EPIA (0.1 mg/kg, i. v. via tail vein, three injections: 15 minutes prior to the induction of ischemia, during ischemia and 5 minutes after reperfusion); • 2. (n=8) steroid compound, 7β-OH EPIA (0.3 mg/kg, i. v. three injections as described in 1.); • 3. (n=8) steroid compound, 7β-OH EPIA (1 mg/kg, i. v., three injections as described in 1.); • 4. (n=8) NBQX (disodium salt, because more water soluble) as reference substance and positive control (TOCRIS, Germany, 30 mg/kg, i. p., three injections as described in 1.); • 5. (n=8) received vehicle (0.9% NaCl, containing 100 μl Ethanol) three injections as described in 1.); • 6. (n=8) ischemia alone; • 7. (n=8) sham operated controls.
# The substances were dissolved in 100 μl Ethanol and finally diluted with 0.9% NaCl.
# After a survival time of 7 days after ischemia, all animals were perfusion fixed transcardially with 4% paraformaldehyde. The brains were then removed carefully and postfixed in the same fixative for 2 hours. After cryoprotection in 30% sucrose, the brains were rapidly frozen in isopentane and stored at −80° C. Twenty-micrometer cryostat sections comprising the hippocampal formation were Niss1 stained with toluidine blue or NeuroTrace fluorescence.
# The severity of neuronal damage in the hippocampal CA1 region after ischemia was evaluated by the number of surviving neurons using Niss1 staining. The mean number of morphologically intact neurons per 400 μm length was calculated in CA1 region for each group. Cell counting was performed in 3-5 serial sections per animal and 6 times 400 μm CA1 area per section using a light microscope equipped with a 20× objective. The data were statistically analyzed by paired Student's t-test. Data were presented as mean±SEM.
# [3] = Experiment 1, 100 nM pre-, during and post-hypoxia
# [4] = Experiment 1, 100 nM present pre-, during and post-hypoxia, control hypoxia 25.5 ± 6.4
# [5] = 30 mg/kg, three injections, 10 min global ischemia, 7 days survival
structure (smiles),measurement,setting,value
"C[C@]12CC[C@H](O)C[C@@H]1C[C@@H](O)[C@@H]1[C@@H]2CC[C@]2(C)C(=O)CC[C@@H]12 [Example 7αOH-EPIA, 7α-Hydroxy-EPIA]",Reduction of hypoxic damage in CA1 (in words),[1]; [3],significantly reduced
same,% Damage in CA1,[1]; [4],4.0 ± 2.9 %
"C[C@]12CC[C@H](O)CC1=C[C@H](O)[C@@H]1[C@@H]2CC[C@]2(C)C(=O)CC[C@@H]12 [Example 7βOH-DHEA, 7β-hydroxy-DHEA]",Reduction in neuronal damage (in words),"[1]; Experiment 3, 100 nM pre-, during and post-hypoxia","large, highly significant, reduction in neuronal damage"
same,% Damage in CA1,"[1]; Experiment 3, 100 nM pre-, during and post-hypoxia, control hypoxia 29.0 ± 6.2",4.2 ± 1.9 %
"C[C@]12CC[C@H](O)C[C@@H]1C[C@H](O)[C@@H]1[C@@H]2CC[C@]2(C)C(=O)CC[C@@H]12 [Example 7βOH-EPIA, 7β-hydroxyepiandrosterone]",Reduction of hypoxic damage in CA1 (in words),[1]; [3],significantly reduced
same,% Damage in CA1,[1]; [4],9.0 ± 4.7 %
same,Neuroprotection against hypoxia (in words),"[1]; Experiment 2, 1 nM",activity was lost
same,% Damage in CA1,"[1]; Experiment 2, 1 nM, control hypoxia 31.9 ± 4.7",20.6 ± 7.2%
same,Neuroprotection against hypoxia (in words),"[1]; Experiment 2, 10 nM and 100 nM",significantly neuroprotective
same,% Damage in CA1,"[1]; Experiment 2, 10 nM, control hypoxia 31.9 ± 4.7",11.9 ± 4.7 %
same,% Damage in CA1,"[1]; Experiment 2, 100 nM, control hypoxia 31.9 ± 4.7",14.3 ± 5.0 %
same,"Neuroprotective effect (in words, t-test)",[2]; 0.1 mg/kg (p=0.01) and 0.3 mg/kg (p=0.0008) i.v.,highly significant neuroprotective effect
same,Neuroprotective effect on CA1 pyramidal cells compared to the sham operated group (FIG. 1C),"[2]; 0.1 mg/kg i.v., three injections, 10 min global ischemia, 7 days survival",74.8%
same,Neuroprotective effect on CA1 pyramidal cells compared to the sham operated group (FIG. 1C),"[2]; 0.3 mg/kg i.v., three injections, 10 min global ischemia, 7 days survival",83.9%
same,Neuroprotection of CA1 pyramidal cells (in words),"[2]; 1.0 mg/kg i.v., three injections","only a tendency to neuroprotection, but the effect was not significant"
same,Behavioral abnormalities of the animals,"[2]; injected i.v. prior, during and after ischemia, all experiments",never observed any behavioral abnormalities
"NS(=O)(=O)c1cccc2c1c([N+](=O)[O-])cc1nc(O)c(O)nc12 [NBQX, 2,3-dihydroxy-6-nitro-7-sulfamoyl-benzo(F)quinoxaline, reference compound]","Neuroprotection in CA1 pyramidal cells compared to the ischemia group (in words, t-test)","[2]; 30 mg/kg, three injections",significant (p=0.03) neuroprotection
same,Neuroprotection compared to the ischemia alone,[2]; [5],47.5%
same,Protective effect compared to the sham operated animals,[2]; [5],68.5%
